EP4620956A1, “PARP1 INHIBITORS” (Zhejiang Yangli Pharmaceutical Technology Co., Ltd., priority 2022, dated 2024)

Tests used:
PARP2 = molecular target: T1, PARP2 (Homo sapiens, UniProt Q9UGN5); assay: Inhibition of PARP2 enzyme activity (chemiluminescence); type: biochemical
T1 construct: purchased BPS 80502

MDA-MB-436 = assay: Anti-proliferative activity (CellTiter-Glo, 7 days), MDA-MB-436; type: cell-based, human
PARP5a = molecular target: T2, PARP5a (Homo sapiens, UniProt O95271); assay: Inhibition of PARP5a enzyme activity (chemiluminescence); type: biochemical
T2 construct: purchased BPS 80504
T2 sequence (O95271 1001-1327): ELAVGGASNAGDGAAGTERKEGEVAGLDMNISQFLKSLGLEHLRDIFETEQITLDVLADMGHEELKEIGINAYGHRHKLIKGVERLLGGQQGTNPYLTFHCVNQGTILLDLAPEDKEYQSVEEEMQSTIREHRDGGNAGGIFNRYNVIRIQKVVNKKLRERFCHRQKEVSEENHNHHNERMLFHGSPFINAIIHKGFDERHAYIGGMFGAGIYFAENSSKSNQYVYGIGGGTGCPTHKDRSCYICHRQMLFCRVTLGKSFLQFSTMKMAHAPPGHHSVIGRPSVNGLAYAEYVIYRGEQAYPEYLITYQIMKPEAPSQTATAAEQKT

[1] = test system: MDA-MB-436 xenograft tumour; assay: Anti-tumour effect in MDA-MB-436 subcutaneous xenograft tumour mouse model; type: in vivo; settings: same dose, MDA-MB-436 xenograft mice
Procedure: Example 4 was further verified in vivo. A subcutaneous xenograft tumour mouse model of the BRCA1-mutated MDA-MB-436 cell line was selected. Human breast cancer MDA-MB-436 cells (ATCC, HTB-130) were cultured in vitro in a monolayer, with the culture conditions of L-15 medium supplemented with 10% foetal bovine serum, 1% penicillin-streptomycin solution, and 0.01 mg/mL bovine insulin, and cultured at 37°C in a CO2-free incubator. The cells were routinely digested and passaged twice a week using trypsin-EDTA. When the cell confluency reached 80%-90%, the cells were harvested and counted, and 0.2 mL of 1 × 10^7 MDA-MB-436 cells were subcutaneously inoculated on the right back of each mouse (PBS : Matrigel = 1 : 1). When the mean tumour volume reached 152 mm^3, the mice were grouped for drug administration. The day of drug administration was set as Day 0. The tumour volume and the body weight of the mice were monitored twice a week, and the drug treatment lasted for 28 days.
The diameter of the tumour was measured with a vernier calliper. The tumour volume is calculated according to the following equation: V = 0.5a × b^2, where a and b represent the long and short diameters of the tumour, respectively. The tumour inhibition effect of the compound was evaluated by relative tumour shrinkage rate Reg%. Reg% reflects the rate of tumour volume reduction after treatment. Reg% = (V0-Vt)/V0×100%, where V0 is the tumour volume measured at the time of grouping for drug administration (i.e., d0), and Vt is the tumour volume measured at a certain time point.
The criteria for compound response in the mouse model were adapted from mRECIST (Modified Response Evaluation Criteria in Solid Tumours) (Gao et al, 2015), and are specifically defined as follows: [formula] • PR (Partial Response): BestResponse < −50% and BestAvgResponse < −20%; [formula] • SD (Stable Disease): BestResponse < 35% and BestAvgResponse < 30%; [formula] • PD (Progressive Disease): other cases; • ORR% is the sum of the proportions of Complete Response (CR) and Partial Response (PR).
Statistical analysis was performed using Prism software, including the mean value (Mean) and standard error of the mean (SEM) of the tumour volume at each time point for each group. For the statistical analysis of TV, the original TV data from each measurement were used to compare the differences between groups. Two-way ANOVA was applied to include the two factors, i.e., drug administration and time for analysis, followed by the Tukey's multiple comparisons test, wherein p < 0.05 was considered statistically significant.

cleaved caspase-3 = assay: Cleaved caspase-3 in MDA-MB-436 xenograft tumour tissues (immunoblotting); type: in vivo, mice; settings: 10 days of treatment, 0.25 hours and 24 hours after the last administration, FIG. 5 and 6
Procedure: The pro-apoptotic effect of the compounds was further verified in vivo. The changes of cleaved caspase-3 in subcutaneous xenograft tumour tissues of MDA-MB-436 mice were detected by immunoblotting. After 10 days of treatment with different compounds, the animals were euthanized 0.25 hours and 24 hours after the last administration, and the tumour tissues were obtained for analysis. The rapidly frozen tumour tissues were placed on dry ice, 350 µL of complete cell lysis buffer (containing 1% protease inhibitors and phosphatase inhibitors) was added, the tissues were disrupted using Tissue grinder for 5 minutes, and the tissue lysate was placed on ice for 30 minutes. Centrifugation was performed at 12,000 rpm and 4°C for 10 minutes, the supernatant was placed in a new 1.5 mL centrifuge tube, and protein quantification was carried out using a BCA quantification kit. According to the quantitative results, the sample protein concentration was uniformly adjusted to 2 µg/µL, LDS loading buffer (4X) and sample reducing agent (10X) were added, and the samples were heated at a constant temperature of 100°C for 10 minutes. For Western blotting, 10 µL of sample was loaded into each well of an SDS-PAGE gel, and electrophoresis was performed at 80 V for 30 minutes, followed by 120 V for 90 minutes. […] The membrane was then cut according to the molecular weights of the proteins to be detected. […]

T1 sequence (Q9UGN5 whole entry): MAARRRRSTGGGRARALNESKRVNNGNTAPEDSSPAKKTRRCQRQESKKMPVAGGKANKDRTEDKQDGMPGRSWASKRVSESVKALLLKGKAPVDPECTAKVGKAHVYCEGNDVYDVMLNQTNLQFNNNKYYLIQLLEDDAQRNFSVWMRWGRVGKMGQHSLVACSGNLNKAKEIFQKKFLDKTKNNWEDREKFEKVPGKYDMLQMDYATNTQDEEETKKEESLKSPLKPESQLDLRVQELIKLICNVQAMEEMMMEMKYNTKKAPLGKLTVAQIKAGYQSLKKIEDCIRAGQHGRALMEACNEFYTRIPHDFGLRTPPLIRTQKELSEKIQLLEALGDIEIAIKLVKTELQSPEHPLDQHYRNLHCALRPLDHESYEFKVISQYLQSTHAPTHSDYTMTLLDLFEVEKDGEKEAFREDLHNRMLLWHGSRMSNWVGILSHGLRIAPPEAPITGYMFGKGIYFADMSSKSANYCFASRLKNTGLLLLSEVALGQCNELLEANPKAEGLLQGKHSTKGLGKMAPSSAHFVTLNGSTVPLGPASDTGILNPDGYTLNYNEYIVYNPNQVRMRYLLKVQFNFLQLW

## [2H]C([2H])([2H])NC(=O)c1ccc(N2CCN(Cc3cnc4c(N)c(CC)c(=O)[nH]c4c3)CC2)c(F)n1 [Example 4, 5-(4-((8-Amino-7-ethyl-6-oxo-5,6-dihydro-1,5-naphthyridin-3-yl)methyl)piperazin-1-yl)-6-fluoro-N-(methyl-d3)picolinamide]
PARP2
  IC50: 18.6 nM
MDA-MB-436; Homo sapiens, MDA-MB-436, 168 h, BRCA1-mutated, 7 days, read-out: MDA-MB-436 IC50
  IC50: 1.93 nM
MDA-MB-436; MDA-MB-231 vs MDA-MB-436
  BRCA1 mutation/WT selectivity fold: >5,181 fold
PARP5a; enzyme activity
  IC50: 4060 nM
PARP5a; ratio relative to the PARP1 enzyme activity
  PARP5a multiple vs PARP1: 8,467
[1]; FIG. 3
  tumour regression: promoted tumour regression
[1]; treatment 28 days
  ORR: 60%
Cleaved caspase-3
  cleaved caspase-3 in tumour tissues: induced an increase in cleaved caspase-3
